Source: publication PMC10689823, “Discovery of a Drug-like, Natural Product-Inspired DCAF11 Ligand Chemotype” (Nature Communications, 2023)

Target: BRD4S-TagBFP reporter (Homo sapiens, UniProt O60885)
Assay: FACS-based CRISPR/Cas9 BRD4 protein stability screen

Low_lfc (Gene FBXL18, Mageck_Gene level): 0.15
Low_logP (Gene FBXL18, Mageck_Gene level): 0.58
High_lfc (Gene FBXL19, Mageck_Gene level): -0.07
High_logP (Gene FBXL19, Mageck_Gene level): 0.17
Low_lfc (Gene FBXL19, Mageck_Gene level): 0.26
Low_logP (Gene FBXL19, Mageck_Gene level): 0.97
High_lfc (Gene FBXL20, Mageck_Gene level): 0.09
High_logP (Gene FBXL20, Mageck_Gene level): 0.36
Low_lfc (Gene FBXL20, Mageck_Gene level): -0.03
Low_logP (Gene FBXL20, Mageck_Gene level): 0.19
High_lfc (Gene FBXL21, Mageck_Gene level): 0.06
High_logP (Gene FBXL21, Mageck_Gene level): 0.36
Low_lfc (Gene FBXL21, Mageck_Gene level): -0.13
Low_logP (Gene FBXL21, Mageck_Gene level): 0.07
High_lfc (Gene FBXL22, Mageck_Gene level): 0.4
Low_lfc (Gene FBXL22, Mageck_Gene level): 0.39
Low_logP (Gene FBXL22, Mageck_Gene level): 1.13
High_lfc (Gene FBXO2, Mageck_Gene level): 0.07
High_logP (Gene FBXO2, Mageck_Gene level): 0.12
Low_lfc (Gene FBXO2, Mageck_Gene level): -0.12
Low_logP (Gene FBXO2, Mageck_Gene level): 0.08
High_lfc (Gene FBXO10, Mageck_Gene level): 0.07
High_logP (Gene FBXO10, Mageck_Gene level): 0.21
Low_lfc (Gene FBXO10, Mageck_Gene level): -0.41
Low_logP (Gene FBXO10, Mageck_Gene level): 0.06
High_lfc (Gene FBXO11, Mageck_Gene level): -0.62
High_logP (Gene FBXO11, Mageck_Gene level): 0
Low_lfc (Gene FBXO11, Mageck_Gene level): 0.03
Low_logP (Gene FBXO11, Mageck_Gene level): 0.18
High_lfc (Gene FBXO15, Mageck_Gene level): -0.25
High_logP (Gene FBXO15, Mageck_Gene level): 0.04
Low_lfc (Gene FBXO15, Mageck_Gene level): -0.28
Low_logP (Gene FBXO15, Mageck_Gene level): 0.22
High_lfc (Gene FBXO16, Mageck_Gene level): -0.06
High_logP (Gene FBXO16, Mageck_Gene level): 0.3
Low_lfc (Gene FBXO16, Mageck_Gene level): -0.09
Low_logP (Gene FBXO16, Mageck_Gene level): 0.14
High_lfc (Gene FBXO17, Mageck_Gene level): -0.2
High_logP (Gene FBXO17, Mageck_Gene level): 0.06
Low_lfc (Gene FBXO17, Mageck_Gene level): 0.03
Low_logP (Gene FBXO17, Mageck_Gene level): 0.49
High_lfc (Gene FBXO18, Mageck_Gene level): -0.14
High_logP (Gene FBXO18, Mageck_Gene level): 0.12
Low_lfc (Gene FBXO18, Mageck_Gene level): 0.16
Low_logP (Gene FBXO18, Mageck_Gene level): 0.25
High_lfc (Gene FBXO21, Mageck_Gene level): 0.22
High_logP (Gene FBXO21, Mageck_Gene level): 0.42
Low_lfc (Gene FBXO21, Mageck_Gene level): 0
Low_logP (Gene FBXO21, Mageck_Gene level): 0.2
High_lfc (Gene FBXO22, Mageck_Gene level): -0.12
High_logP (Gene FBXO22, Mageck_Gene level): 0.02
Low_lfc (Gene FBXO22, Mageck_Gene level): 0.34
Low_logP (Gene FBXO22, Mageck_Gene level): 0.76
High_lfc (Gene FBXO24, Mageck_Gene level): -0.07
High_logP (Gene FBXO24, Mageck_Gene level): 0.15
Low_lfc (Gene FBXO24, Mageck_Gene level): 0.03
Low_logP (Gene FBXO24, Mageck_Gene level): 0.43
High_lfc (Gene FBXO25, Mageck_Gene level): -0.22
High_logP (Gene FBXO25, Mageck_Gene level): 0.18
Low_lfc (Gene FBXO25, Mageck_Gene level): -0.04
Low_logP (Gene FBXO25, Mageck_Gene level): 0.27
High_lfc (Gene FBXO27, Mageck_Gene level): -0.12
High_logP (Gene FBXO27, Mageck_Gene level): 0.16
Low_lfc (Gene FBXO27, Mageck_Gene level): 0.09
Low_logP (Gene FBXO27, Mageck_Gene level): 0.72
High_lfc (Gene FBXO28, Mageck_Gene level): 0.16
High_logP (Gene FBXO28, Mageck_Gene level): 0.49
Low_lfc (Gene FBXO28, Mageck_Gene level): -0.29
Low_logP (Gene FBXO28, Mageck_Gene level): 0.02
High_lfc (Gene FBXO30, Mageck_Gene level): -0.1
High_logP (Gene FBXO30, Mageck_Gene level): 0.16
Low_lfc (Gene FBXO30, Mageck_Gene level): 0.12
Low_logP (Gene FBXO30, Mageck_Gene level): 0.1
High_lfc (Gene FBXO31, Mageck_Gene level): 0.04
High_logP (Gene FBXO31, Mageck_Gene level): 0.36
Low_lfc (Gene FBXO31, Mageck_Gene level): -0.01
Low_logP (Gene FBXO31, Mageck_Gene level): 0.26
High_lfc (Gene FBXO32, Mageck_Gene level): 0.06
High_logP (Gene FBXO32, Mageck_Gene level): 0.08
Low_lfc (Gene FBXO32, Mageck_Gene level): 0.38
Low_logP (Gene FBXO32, Mageck_Gene level): 0.68
High_lfc (Gene FBXO33, Mageck_Gene level): -0.54
High_logP (Gene FBXO33, Mageck_Gene level): 0
Low_lfc (Gene FBXO33, Mageck_Gene level): -0.07
Low_logP (Gene FBXO33, Mageck_Gene level): 0.18
High_lfc (Gene FBXO34, Mageck_Gene level): 0.15
High_logP (Gene FBXO34, Mageck_Gene level): 0.29
Low_lfc (Gene FBXO34, Mageck_Gene level): -0.13
Low_logP (Gene FBXO34, Mageck_Gene level): 0.33
High_lfc (Gene FBXO36, Mageck_Gene level): -0.26
High_logP (Gene FBXO36, Mageck_Gene level): 0.21
Low_lfc (Gene FBXO36, Mageck_Gene level): 0.2
Low_logP (Gene FBXO36, Mageck_Gene level): 0.47
High_lfc (Gene FBXO38, Mageck_Gene level): -0.33
High_logP (Gene FBXO38, Mageck_Gene level): 0.02
Low_lfc (Gene FBXO38, Mageck_Gene level): 0.01
Low_logP (Gene FBXO38, Mageck_Gene level): 0.38
High_lfc (Gene FBXO39, Mageck_Gene level): 0.06
High_logP (Gene FBXO39, Mageck_Gene level): 0.22
Low_lfc (Gene FBXO39, Mageck_Gene level): 0.01
Low_logP (Gene FBXO39, Mageck_Gene level): 0.18
CRL substrate receptor scoring as top hit (gene required for BRD4 degradation) (KBM7 BRD4-BFP reporter cells, 9 0.5 µM, 10 1 µM, dBET6 10 nM, 6 hours): DCAF11
High_lfc (gene FBXO3): 0.34
High_logP (gene FBXO3): 0.33
Low_lfc (gene FBXO3): -0.08
Low_logP (gene FBXO3): 0.04
High_lfc (gene FBXO4): 0.05
High_logP (gene FBXO4): 0.31
Low_lfc (gene FBXO4): -0.07
Low_logP (gene FBXO4): 0.01
High_lfc (gene FBXO5): 0.23
High_logP (gene FBXO5): 0.83
Low_lfc (gene FBXO5): -0.27
Low_logP (gene FBXO5): 0.05
High_lfc (gene FBXO6): -0.06
High_logP (gene FBXO6): 0.34
Low_lfc (gene FBXO6): -0.26
Low_logP (gene FBXO6): 0.15
High_lfc (gene FBXO7): -0.21
High_logP (gene FBXO7): 0
Low_lfc (gene FBXO7): -0.1
Low_logP (gene FBXO7): 0.14
High_lfc (gene FBXO8): -0.41
High_logP (gene FBXO8): 0.01
Low_lfc (gene FBXO8): -0.3
Low_logP (gene FBXO8): 0.02
High_lfc (gene FBXO9): -0.11
High_logP (gene FBXO9): 0.02
Low_lfc (gene FBXO9): -0.13
Low_logP (gene FBXO9): 0.09
High_lfc (gene FBXO40): -0.14
High_logP (gene FBXO40): 0.09
Low_lfc (gene FBXO40): -0.23
Low_logP (gene FBXO40): 0.3
High_lfc (gene FBXO41): 0.03
High_logP (gene FBXO41): 0.17
Low_lfc (gene FBXO41): -0.11
Low_logP (gene FBXO41): 0.05
High_lfc (gene FBXO42): 0.02
High_logP (gene FBXO42): 0.05
Low_lfc (gene FBXO42): 0.34
Low_logP (gene FBXO42): 1.46
High_lfc (gene FBXO43): -0.17
High_logP (gene FBXO43): 0.11
Low_lfc (gene FBXO43): -0.15
Low_logP (gene FBXO43): 0.08
High_lfc (gene FBXO44): -0.16
High_logP (gene FBXO44): 0.39
Low_lfc (gene FBXO44): -0.37
Low_logP (gene FBXO44): 0.19
High_lfc (gene FBXO45): -0.07
High_logP (gene FBXO45): 0.11
Low_lfc (gene FBXO45): -0.31
Low_logP (gene FBXO45): 0.11
High_lfc (gene FBXO46): -0.12
High_logP (gene FBXO46): 0.12
Low_lfc (gene FBXO46): 0.18
Low_logP (gene FBXO46): 0.84
High_lfc (gene FBXO47): 0.35
High_logP (gene FBXO47): 0.59
Low_lfc (gene FBXO47): 0.65
Low_logP (gene FBXO47): 1.14
High_lfc (gene FBXO48): -0.14
High_logP (gene FBXO48): 0.09
Low_lfc (gene FBXO48): -0.68
Low_logP (gene FBXO48): 0.01
High_lfc (gene FBXW2): -0.16
High_logP (gene FBXW2): 0.05
Low_lfc (gene FBXW2): -0.15
Low_logP (gene FBXW2): 0.23
High_lfc (gene FBXW4): -0.23
High_logP (gene FBXW4): 0.02
Low_lfc (gene FBXW4): 0.1
Low_logP (gene FBXW4): 0.3
High_lfc (gene FBXW5): -0.14
High_logP (gene FBXW5): 0.29
Low_lfc (gene FBXW5): 0.04
Low_logP (gene FBXW5): 0.25
High_lfc (gene FBXW7): 0.42
High_logP (gene FBXW7): 1.76
Low_lfc (gene FBXW7): 0.03
Low_logP (gene FBXW7): 0.22
High_lfc (gene FBXW8): -0.01
High_logP (gene FBXW8): 0.23
Low_lfc (gene FBXW8): 0.37
Low_logP (gene FBXW8): 0.66
High_logP (gene FBXW9): 0.71
Low_logP (gene FBXW9): 1.01
High_lfc (gene FBXW10): -0.01
High_logP (gene FBXW10): 0.15
Low_lfc (gene FBXW10): -0.13
Low_logP (gene FBXW10): 0.01
High_lfc (gene FBXW11): -0.15
High_logP (gene FBXW11): 0.05
Low_lfc (gene FBXW11): -0.16
Low_logP (gene FBXW11): 0.14
High_lfc (gene FBXW12): -0.01
High_logP (gene FBXW12): 0.11
Low_lfc (gene FBXW12): 0.06
Low_logP (gene FBXW12): 0.36
High_logP (gene FEM1A): 0.33
SMILES: Cc1sc2c(c1C)C(c1ccc(Cl)cc1)=NC(CC(=O)NCCOCCOCCOCCOc1c(Br)cc(C=C3C(=O)Nc4ccc(Br)cc43)cc1Br)c1nnc(C)n1-2 (stereo not drawn) [Compound 10]
